From a polymer gas permeability compilation

| H2 permeability [Barrer] | N2 permeability [Barrer] | O2 permeability [Barrer] | Compound |
| --- | --- | --- | --- |
| 10.9 | 0.094 | 0.663 | *c1ccc(-c2ccc(N3C(=O)c4ccc([Si](C)(C)c5ccc6c(c5)C(=O)N(*)C6=O)cc4C3=O)c(C)c2)cc1C (repeat unit) |
| 9.33 | 0.096 | 0.53 | *c1ccc(-c2ccc(N3C(=O)c4ccc([Si](C)(C)c5ccc6c(c5)C(=O)N(*)C6=O)cc4C3=O)c(OC)c2)cc1OC (repeat unit) |
| 5.62 | 0.028 | 0.261 | *c1ccc(Cc2ccc(N3C(=O)c4ccc(Oc5ccc6c(c5)C(=O)N(*)C6=O)cc4C3=O)cc2)cc1 (repeat unit) |
| 6.32 | 0.032 | 0.296 | *c1ccc(Cc2ccc(N3C(=O)c4ccc(S(=O)(=O)c5ccc6c(c5)C(=O)N(*)C6=O)cc4C3=O)cc2)cc1 (repeat unit) |
| 5.43 | 0.027 | 0.246 | *c1ccc(Cc2ccc(N3C(=O)c4ccc(Sc5ccc6c(c5)C(=O)N(*)C6=O)cc4C3=O)cc2)cc1 (repeat unit) |
| 4 | 0.034 | 0.216 | *c1ccc(Oc2ccc(N3C(=O)c4ccc(Oc5ccc(Oc6ccc7c(c6)C(=O)N(*)C7=O)cc5)cc4C3=O)cc2)cc1 (repeat unit) |
| 4.68 | 0.021 | 0.198 | *c1ccc(Oc2ccc(N3C(=O)c4ccc(Sc5ccc6c(c5)C(=O)N(*)C6=O)cc4C3=O)cc2)cc1 (repeat unit) |

Further lines, the compound ahead of its results:

| Compound | H2 permeability [Barrer] | N2 permeability [Barrer] | O2 permeability [Barrer] |
| --- | --- | --- | --- |
| *C(C(=O)OC(C)C)C(*)C(=O)OC(C)CC (repeat unit) | 51 | 5 | 12 |
| *C(C(=O)OC(C)C)C(*)C(=O)OC(C)CC(C)C (repeat unit) | 156 | 14 | 45 |
| *C(C(=O)OC(C)CC(C)C)C(*)C(=O)OC(C)(C)C (repeat unit) | 169 | 16 | 49 |
| *C(C(=O)OC(C)CC)C(*)C(=O)OC(C)(C)C (repeat unit) | 145 | 13 | 39 |
| *[Si](C)(C)CCCCCC[Si](*)(C)C (repeat unit) |  | 81 | 182 |
| *c1ccc(-c2nc3cc(-c4ccc5[nH]c(*)nc5c4)ccc3[nH]2)c(Br)c1 (repeat unit) | 0.38 |  | 0.006 |
| *c1ccc(N2C(=O)c3ccc(C(=O)Oc4ccc(C(c5ccc(OC(=O)c6ccc7c(c6)C(=O)N(*)C7=O)cc5)(C(F)(F)F)C(F)(F)F)cc4)cc3C2=O)cc1 (repeat unit) | 4.36 | 0.0355 | 0.251 |
| *c1ccc2c(c1)C(=O)n1c-2nc2ccc(-c3ccc4c(c3)nc3n4C(=O)c4ccc(C(*)(C(F)(F)F)C(F)(F)F)cc4-3)cc21 (repeat unit) | 74.4 | 1.44 | 7.75 |
| *c1ccc2c(c1)C(=O)n1c-2nc2ccc(Oc3ccc4c(c3)nc3n4C(=O)c4ccc(C(*)(C(F)(F)F)C(F)(F)F)cc4-3)cc21 (repeat unit) | 54.9 | 0.81 | 5.04 |
| *c1cccc(-c2nc3cc(-c4ccc5[nH]c(*)nc5c4)ccc3[nH]2)n1 (repeat unit) | 1.38 |  | 0.045 |
